# Measurements from patent EP0751768B1, “ANTI-VIRAL AND ANTI-CANCER AGENT” (Radopath Pharmaceuticals International Limited, priority 1994, dated 1995).
# “And” between values parts separate entries of the source, which are not always exact repeats. Identical values can stand only once. Like-named read-outs stand apart in the source and are kept apart here.
# What was measured:
# [1] = test system: MAC15A (murine adenocarcinoma colon); assay type: in vivo, NMR1 mice
# HIV-I IIIB = assay: Acute infection assay, HIV core antigen ELISA (HIV-I IIIB); assay type: cell-based
# B16F1-murine melanoma = assay type: in vivo
# HIV-1RF = assay: microbe, parasite or virus in culture; assay type: cell-based, human immunodeficiency virus HIV-1RF; conditions: Table 7; 50% reduction in HIV core antigen levels, 72 hours post-infection; read-out: IC50
# in vivo [2] = conditions: mouse, iv
# HIV-1 infection = assay: Pilot study of C17 in patients with HIV-1 infection and HIV-related Kaposi's sarcoma; assay type: in vivo, humans; design: CD4 ABS / CD8 ABS: unit not given here
# in vitro = conditions: CC50 (Toxicity)
# in vivo [3] = conditions: rat, iv
# [4] = rats, preliminary data
# [5] = In vitro anti-tumour activity; assay type: cell-based; conditions: compound appears to require activation in the liver
# [6] = mice, preliminary data
# B16 murine melanoma = assay: Anti-tumour activity of C17 against B16 melanoma (tumour weight inhibition); assay type: in vivo, female C57/black mice
# [7] = 100mg kg^-1 ip per day, schedule days 1,2,3,4,5, median, T-test group, C-solvent control, 5 animals per group
# [8] = Against HIV-I IIIB, single determinations, read-out: IC50 (Antiviral)
# [9] = read-out: CC50 (Toxicity), listed under Against HIV-I IIIB, single determinations
# [10] = day 7, MTD by 5 consecutive daily intravenous injections
smiles,measurement,setting,value
"O=C(O)c1cc(Cl)ccc1Cl [C12, 2,5-dichlorobenzoic acid]",T/C%,"[1]; mouse, in vivo, ip",171%
same,IC50,"HIV-I IIIB; Human immunodeficiency virus 1, IIIB, read-out: IC50 (Antiviral)",> 200 µM
same,CC50,uninfected cells,> 200 µM
"O=C(O)c1cc([N+](=O)[O-])c(Cl)c([N+](=O)[O-])c1 [C4, 4-chloro-3,5-dinitrobenzoic acid]",T/C%,[1]; [7],271%
same,% Tumour Weight Inhibition,"B16F1-murine melanoma; 50 mg/kg per day ip, days 1,5, 12 days after sc transplant, corn oil",10%
same,% Tumour Weight Inhibition,"B16F1-murine melanoma; 75 mg/kg per day ip, days 1,5, 12 days after sc transplant, corn oil",41%
same,% Tumour Weight Inhibition,"B16F1-murine melanoma; 100 mg/kg per day ip, days 1,5, 12 days after sc transplant, corn oil",39%
same,IC50,"HIV-I IIIB; Against HIV-I IIIB, average of the lines above, read-out: IC50 (Antiviral), Average",35 µM
same,IC50,HIV-I IIIB; [8],40 µM and 30 µM
same,CD50,"uninfected cells; Table 7, 50% inhibition of cells by 14C protein hydrolysate uptake",70µm
same,CC50,"uninfected cells; read-out: CC50 (Toxicity), Average, listed under Against HIV-I IIIB, average of the lines above",85 µM
same,CC50,uninfected cells; [9],100 µM and 70 µM
same,IC50,HIV-1RF,30 µM
"COC(=O)c1cc([N+](=O)[O-])c(Cl)c([N+](=O)[O-])c1 [C6, 4-chloro-3,5-dinitrobenzoic acid methyl ester]",% Tumour Weight Inhibition,"B16F1-murine melanoma; mouse, in vivo",67% and 43%
same,SI (Selectivity Index),HIV-I IIIB,12
same,CC50,uninfected cells,60 µM
"O=C(O)c1ccc(Cl)c(Cl)c1 [C11, 3,4-dichlorobenzoic acid]",CC50,uninfected cells,> 200 µM
"O=C(O)c1cc([N+](=O)[O-])ccc1Cl [C17, 2-chloro-5-nitrobenzoic acid]",MTD at 5 days,in vivo [2],950 mg/kg/day
same,CD4 ABS,"HIV-1 infection; Patient 1, After (day 20), Before (day 1): 0.399, 10mg/kg body weight/day im 5 days weekly",0.760
same,CD8 ABS,"HIV-1 infection; Patient 1, After (day 20), Before (day 1): 0.567, 10mg/kg body weight/day im 5 days weekly",0.840
same,CD4/CD8,"HIV-1 infection; Patient 1, After (day 20), Before (day 1): 0.70, 10mg/kg body weight/day im 5 days weekly",0.90
same,Lymphocytes,"HIV-1 infection; Patient 1, After (day 20), Before (day 1): 2.1, 10mg/kg body weight/day im 5 days weekly",2.0 x 10^3mm^-3
same,CD4 %,"HIV-1 infection; Patient 1, After (day 20), Before (day 1): 19, 10mg/kg body weight/day im 5 days weekly",38%
same,CD4 ABS,"HIV-1 infection; Patient 2, After (day 14), Before (day 1): 0.360, 10mg/kg body weight/day im 5 days weekly",0.513
same,CD4/CD8,"HIV-1 infection; Patient 2, After (day 14), Before (day 1): 0.38, 10mg/kg body weight/day im 5 days weekly",0.59
same,CD8 ABS,"HIV-1 infection; Patient 2, After (day 14), Before (day 1): 0.940, 10mg/kg body weight/day im 5 days weekly",0.874
same,Lymphocytes,"HIV-1 infection; Patient 2, After (day 14), Before (day 1): 2.0, 10mg/kg body weight/day im 5 days weekly",1.9 x 10^3mm^-3
same,CD4 %,"HIV-1 infection; Patient 2, After (day 14), Before (day 1): 18, 10mg/kg body weight/day im 5 days weekly",27%
same,CD4 ABS,"HIV-1 infection; Patient 3, After (day 20), Before (day 1): 0.072, 10mg/kg body weight/day im 5 days weekly",0.187
same,CD8 ABS,"HIV-1 infection; Patient 3, After (day 20), Before (day 1): 0.270, 10mg/kg body weight/day im 5 days weekly",0.682
same,CD4/CD8,"HIV-1 infection; Patient 3, After (day 20), Before (day 1): 0.27, 10mg/kg body weight/day im 5 days weekly",0.27
same,Lymphocytes,"HIV-1 infection; Patient 3, After (day 20), Before (day 1): 0.9, 10mg/kg body weight/day im 5 days weekly",1.1 x 10^3mm^-3
same,CD4 %,"HIV-1 infection; Patient 3, After (day 20), Before (day 1): 8, 10mg/kg body weight/day im 5 days weekly",17%
same,CD4/CD8,"HIV-1 infection; Patient 4, After (day 14), Before (day 1): 0.08, 10mg/kg body weight/day im 5 days weekly",0.35
same,CD4 ABS,"HIV-1 infection; Patient 4, After (day 14), Before (day 1): 0.108, 10mg/kg body weight/day im 5 days weekly",0.440
same,CD8 ABS,"HIV-1 infection; Patient 4, After (day 14), Before (day 1): 1.350, 10mg/kg body weight/day im 5 days weekly",1.260
same,Lymphocytes,"HIV-1 infection; Patient 4, After (day 14), Before (day 1): 1.8, 10mg/kg body weight/day im 5 days weekly",2.0 x 10^3mm^-3
same,CD4 %,"HIV-1 infection; Patient 4, After (day 14), Before (day 1): 6, 10mg/kg body weight/day im 5 days weekly",22%
same,CD4/CD8,"HIV-1 infection; Patient 5, After (day 21), Before (day 1): 0.56, 10mg/kg body weight/day im 5 days weekly",0.66
same,CD4 ABS,"HIV-1 infection; Patient 5, After (day 21), Before (day 1): 0.812, 10mg/kg body weight/day im 5 days weekly",1.023
same,CD8 ABS,"HIV-1 infection; Patient 5, After (day 21), Before (day 1): 1.456, 10mg/kg body weight/day im 5 days weekly",1.550
same,Lymphocytes,"HIV-1 infection; Patient 5, After (day 21), Before (day 1): 2.8, 10mg/kg body weight/day im 5 days weekly",3.1 x 10^3mm^-3
same,CD4 %,"HIV-1 infection; Patient 5, After (day 21), Before (day 1): 29, 10mg/kg body weight/day im 5 days weekly",33%
same,CD4/CD8,"HIV-1 infection; Patient 6 (AIDS-related Kaposi's sarcoma), After (day 34), Before (day 1): 0.31, 10mg/kg body weight/day im 5 days weekly",0.47
same,CD4 ABS,"HIV-1 infection; Patient 6 (AIDS-related Kaposi's sarcoma), After (day 34), Before (day 1): 0.378, 10mg/kg body weight/day im 5 days weekly",0.437
same,CD8 ABS,"HIV-1 infection; Patient 6 (AIDS-related Kaposi's sarcoma), After (day 34), Before (day 1): 1.218, 10mg/kg body weight/day im 5 days weekly",0.931
same,Lymphocytes,"HIV-1 infection; Patient 6 (AIDS-related Kaposi's sarcoma), After (day 34), Before (day 1): 2.1, 10mg/kg body weight/day im 5 days weekly",1.9 x 10^3mm^-3
same,CD4 %,"HIV-1 infection; Patient 6 (AIDS-related Kaposi's sarcoma), After (day 34), Before (day 1): 18, 10mg/kg body weight/day im 5 days weekly",23%
same,sarcoma lesions (in words),"HIV-1 infection; Patient 6, AIDS-related Kaposi's sarcoma",disappeared
same,CD4 counts (in words),"HIV-1 infection; all 6 patients, about 2 weeks after the beginning of the therapy, 10mg/kg body weight/day im 5 days weekly",showed an increase
same,patient general condition (in words),HIV-1 infection; including weight gain and a marked decrease in opportunistic infections and diarrhea,clinical improvements
same,CC50,in vitro,> 1000 µM
same,MTD at 5 days,in vivo [3],900 mg/kg/day
same,"red blood cell count, haemoglobin concentration, macrophage count, white blood cell count (WBC), lymphocyte count and haematocrit (HTC)",[4]; [10],increases
same,"red blood cell count, haemoglobin concentration, macrophage count, white blood cell count (WBC), lymphocyte count and haematocrit (HTC)",[4]; day 14,returned to normal
same,anti-tumour activity in vitro (in words),[5],could not be supported in vitro
same,"red blood cell count, haemoglobin concentration, macrophage count, white blood cell count (WBC), lymphocyte count and haematocrit (HTC)",[6]; [10],increases
same,"red blood cell count, haemoglobin concentration, macrophage count, white blood cell count (WBC), lymphocyte count and haematocrit (HTC)",[6]; day 14,returned to normal
same,% Tumour Weight Inhibition,"B16 murine melanoma; 700 mg/kg per day ip, days 1,2,3,4,5,6, 12 days after sc transplant, 6 animals per group",62%
same,anti-tumour activity in vivo (in words),B16 murine melanoma; refers to Table 6,considerable anti-tumour activity
"O=C(O)c1ccc([N+](=O)[O-])cc1[N+](=O)[O-] [C28, 2,4-dinitrobenzoic acid]",T/C%,[1]; [7],100%
"O=C(O)c1cc([N+](=O)[O-])cc([N+](=O)[O-])c1 [C29, 3,5-dinitrobenzoic acid]",T/C%,[1]; [7],100%
NC(=O)c1cc([N+](=O)[O-])c(Cl)c([N+](=O)[O-])c1 [C5],IC50,HIV-I IIIB; [8],5 µM
same,CC50,uninfected cells; [9],50 µM
